Test results as given in ChEMBL document CHEMBL1240428, “Conventional and microwave assisted synthesis of some new N-[(4-oxo-2-substituted aryl -1, 3-thiazolidine)-acetamidyl]-5-nitroindazoles and its antimicrobial activity” (2010).
Converted amounts (≈) assume the structure as drawn.

Experiments:
Escherichia coli [1] = experiment: Antibacterial activity against Escherichia coli at 50 ug/mL; format: functional; details: read-out: IZ
Fusarium oxysporum [2] = experiment: Antifungal activity against Fusarium oxysporum; format: functional
Bacillus subtilis [3] = experiment: Antibacterial activity against Bacillus subtilis; format: functional
Bacillus subtilis [4] = experiment: Antibacterial activity against Bacillus subtilis at 50 ug/mL; format: functional; details: read-out: IZ
Aspergillus flavus [5] = experiment: Antifungal activity against Aspergillus flavus; format: functional
Fusarium oxysporum [6] = experiment: Antifungal activity against Fusarium oxysporum at 100 ug/mL; format: functional; details: read-out: IZ
Penicillium citrinum [7] = experiment: Antifungal activity against Penicillium citrinum at 100 ug/mL; format: functional; details: read-out: IZ
Fusarium oxysporum [8] = experiment: Antifungal activity against Fusarium oxysporum at 50 ug/mL; format: functional; details: read-out: IZ
Escherichia coli [9] = experiment: Antibacterial activity against Escherichia coli at 100 ug/mL; format: functional; details: read-out: IZ
Salmonella typhi [10] = experiment: Antibacterial activity against Salmonella typhi at 50 ug/mL; details: read-out: IZ
Penicillium citrinum [11] = experiment: Antifungal activity against Penicillium citrinum at 50 ug/mL; format: functional; details: read-out: IZ
Bacillus subtilis [12] = experiment: Antibacterial activity against Bacillus subtilis at 100 ug/mL; format: functional; details: read-out: IZ
Aspergillus flavus [13] = experiment: Antifungal activity against Aspergillus flavus at 50 ug/mL; format: functional; details: read-out: IZ
Salmonella typhi [14] = experiment: Antibacterial activity against Salmonella typhi at 100 ug/mL; details: read-out: IZ
Penicillium citrinum [15] = experiment: Antifungal activity against Penicillium citrinum; format: functional
Salmonella typhi [16] = experiment: Antibacterial activity against Salmonella typhi
Escherichia coli [17] = experiment: Antibacterial activity against Escherichia coli; format: functional
Aspergillus flavus [18] = experiment: Antifungal activity against Aspergillus flavus at 100 ug/mL; format: functional; details: read-out: IZ

Row | SMILES | MIC (Fusarium oxysporum [2]) [µg/mL] | MIC (Bacillus subtilis [3]) [µg/mL] | MIC (Aspergillus flavus [5]) [µg/mL] | MIC (Penicillium citrinum [15]) [µg/mL] | MIC (Salmonella typhi [16]) [µg/mL] | MIC (Escherichia coli [17]) [µg/mL] | zone of inhibition at 50 µg/mL (Escherichia coli [1]) [mm] | zone of inhibition at 50 µg/mL (Bacillus subtilis [4]) [mm] | zone of inhibition at 100 µg/mL (Fusarium oxysporum [6]) [mm] | zone of inhibition at 100 µg/mL (Penicillium citrinum [7]) [mm] | zone of inhibition at 50 µg/mL (Fusarium oxysporum [8]) [mm] | zone of inhibition at 100 µg/mL (Escherichia coli [9]) [mm] | zone of inhibition at 50 µg/mL (Salmonella typhi [10]) [mm] | zone of inhibition at 50 µg/mL (Penicillium citrinum [11]) [mm] | zone of inhibition at 100 µg/mL (Bacillus subtilis [12]) [mm] | zone of inhibition at 50 µg/mL (Aspergillus flavus [13]) [mm] | zone of inhibition at 100 µg/mL (Salmonella typhi [14]) [mm] | zone of inhibition at 100 µg/mL (Aspergillus flavus [18]) [mm]
1 | Cc1ccc(/C=N/NC(=O)Cn2ncc3cc([N+](=O)[O-])ccc32)cc1 | 25 (≈ 74.1 µM) | 42 (≈ 125 µM) | 30 (≈ 88.9 µM) | 38 (≈ 113 µM) | 34 (≈ 101 µM) | 31 (≈ 91.9 µM) | 9 | 6 | 12.6 | 10 | 10.8 | 11 | 7 | 7.1 | 9 | 8 | 10 | 11
2 | CN(C)c1ccc(C2SCC(=O)N2NC(=O)Cn2ncc3cc([N+](=O)[O-])ccc32)cc1 (centres undefined) | 18 (≈ 40.9 µM) | 36 (≈ 81.7 µM) | 22 (≈ 49.9 µM) | 30 (≈ 68.1 µM) | 25 (≈ 56.8 µM) | 22 (≈ 49.9 µM) | 13.5 | 10.4 | 16.8 | 14.5 | 13.9 | 16 | 11.5 | 11.4 | 13.8 | 12.6 | 14.9 | 15.4
3 | O=C(Cn1ncc2cc([N+](=O)[O-])ccc21)N/N=C/c1ccccc1 | 17 (≈ 52.6 µM) | 30 (≈ 92.8 µM) | 20 (≈ 61.9 µM) | 30 (≈ 92.8 µM) | 22 (≈ 68 µM) | 22 (≈ 68 µM) | 14 | 11.5 | 17.4 | 15.5 | 15 | 16.4 | 12.7 | 11.5 | 14.8 | 13.6 | 16 | 16.7
4 | COc1ccccc1/C=N/NC(=O)Cn1ncc2cc([N+](=O)[O-])ccc21 | 20 (≈ 56.6 µM) | 38 (≈ 108 µM) | 23 (≈ 65.1 µM) | 35 (≈ 99.1 µM) | 30 (≈ 84.9 µM) | 27 (≈ 76.4 µM) | 11.5 | 9 | 15.2 | 12.8 | 12.6 | 14 | 9.8 | 9.1 | 12.8 | 11 | 13.5 | 14
5 | O=C(Cn1ncc2cc([N+](=O)[O-])ccc21)N/N=C/c1ccccc1O | 15 (≈ 44.2 µM) | 25 (≈ 73.7 µM) | 19 (≈ 56 µM) | 28 (≈ 82.5 µM) | 20 (≈ 58.9 µM) | 20 (≈ 58.9 µM) | 15.4 | 12.8 | 18.5 | 16.8 | 16.2 | 18 | 13.8 | 12 | 16 | 14.9 | 17.5 | 18
6 | Cc1ccc(C2SCC(=O)N2NC(=O)Cn2ncc3cc([N+](=O)[O-])ccc32)cc1 (centres undefined) | 20 (≈ 48.6 µM) | 40 (≈ 97.2 µM) | 23 (≈ 55.9 µM) | 32 (≈ 77.8 µM) | 30 (≈ 72.9 µM) | 25 (≈ 60.8 µM) | 12 | 9 | 15.4 | 13.2 | 12.9 | 14.8 | 10.1 | 10 | 12.2 | 11.1 | 13.3 | 14

Second part, led by results:

Row | MIC (Fusarium oxysporum [2]) [µg/mL] | MIC (Bacillus subtilis [3]) [µg/mL] | MIC (Aspergillus flavus [5]) [µg/mL] | MIC (Penicillium citrinum [15]) [µg/mL] | MIC (Salmonella typhi [16]) [µg/mL] | MIC (Escherichia coli [17]) [µg/mL] | SMILES | zone of inhibition at 50 µg/mL (Escherichia coli [1]) [mm] | zone of inhibition at 50 µg/mL (Bacillus subtilis [4]) [mm] | zone of inhibition at 100 µg/mL (Fusarium oxysporum [6]) [mm] | zone of inhibition at 100 µg/mL (Penicillium citrinum [7]) [mm] | zone of inhibition at 50 µg/mL (Fusarium oxysporum [8]) [mm] | zone of inhibition at 100 µg/mL (Escherichia coli [9]) [mm] | zone of inhibition at 50 µg/mL (Salmonella typhi [10]) [mm] | zone of inhibition at 50 µg/mL (Penicillium citrinum [11]) [mm] | zone of inhibition at 100 µg/mL (Bacillus subtilis [12]) [mm] | zone of inhibition at 50 µg/mL (Aspergillus flavus [13]) [mm] | zone of inhibition at 100 µg/mL (Salmonella typhi [14]) [mm] | zone of inhibition at 100 µg/mL (Aspergillus flavus [18]) [mm]
7 | 15 (≈ 35.1 µM) | 25 (≈ 58.5 µM) | 19 (≈ 44.5 µM) | 28 (≈ 65.5 µM) | 20 (≈ 46.8 µM) | 20 (≈ 46.8 µM) | COc1ccc(C2SCC(=O)N2NC(=O)Cn2ncc3cc([N+](=O)[O-])ccc32)cc1 (centres undefined) | 16 | 12.4 | 18.9 | 17 | 16 | 18 | 13.8 | 13.6 | 16 | 14.8 | 17 | 17.7
8 | 13 (≈ 27.3 µM) | 18 (≈ 37.8 µM) | 17 (≈ 35.7 µM) | 20 (≈ 42 µM) | 17 (≈ 35.7 µM) | 15 (≈ 31.5 µM) | O=C(Cn1ncc2cc([N+](=O)[O-])ccc21)NN1C(=O)CSC1c1cccc(Br)c1 (centres undefined) | 20.2 | 16.9 | 23.7 | 22 | 20.8 | 23 | 18 | 18 | 21.4 | 20 | 21.9 | 22.8
9 | 15 (≈ 37.3 µM) | 22 (≈ 54.7 µM) | 19 (≈ 47.2 µM) | 28 (≈ 69.6 µM) | 18 (≈ 44.8 µM) | 18 (≈ 44.8 µM) | O=C(Cn1ncc2cc([N+](=O)[O-])ccc21)N/N=C/c1ccccc1Br | 16.8 | 14 | 19.8 | 18 | 17.8 | 19.4 | 15 | 13.3 | 17.4 | 16.4 | 19 | 19.4
10 | 13 (≈ 36.3 µM) | 20 (≈ 55.9 µM) | 17 (≈ 47.5 µM) | 22 (≈ 61.5 µM) | 17 (≈ 47.5 µM) | 16 (≈ 44.7 µM) | O=C(Cn1ncc2cc([N+](=O)[O-])ccc21)N/N=C/c1ccccc1Cl | 18.2 | 16 | 22 | 20.5 | 20.1 | 21 | 16.9 | 15.8 | 19.4 | 19 | 21 | 22
11 | 11 (≈ 29.9 µM) | 17 (≈ 46.2 µM) | 14 (≈ 38 µM) | 20 (≈ 54.3 µM) | 15 (≈ 40.7 µM) | 15 (≈ 40.7 µM) | O=C(Cn1ncc2cc([N+](=O)[O-])ccc21)N/N=C/c1ccccc1[N+](=O)[O-] | 20 | 18 | 24.2 | 22.7 | 22 | 22.8 | 19 | 18 | 21 | 21.4 | 22.8 | 24
12 | 13 (≈ 27.3 µM) | 20 (≈ 42 µM) | 17 (≈ 35.7 µM) | 20 (≈ 42 µM) | 17 (≈ 35.7 µM) | 17 (≈ 35.7 µM) | O=C(Cn1ncc2cc([N+](=O)[O-])ccc21)NN1C(=O)CSC1c1ccccc1Br (centres undefined) | 19.2 | 16 | 22.6 | 21 | 19.8 | 21.8 | 17.2 | 17.2 | 20.5 | 18.8 | 21 | 21.7
13 | 11 (≈ 25.5 µM) | 17 (≈ 39.4 µM) | 14 (≈ 32.4 µM) | 17 (≈ 39.4 µM) | 15 (≈ 34.7 µM) | 13 (≈ 30.1 µM) | O=C(Cn1ncc2cc([N+](=O)[O-])ccc21)NN1C(=O)CSC1c1ccccc1Cl (centres undefined) | 21.4 | 18 | 25 | 23.5 | 22 | 24.5 | 19.2 | 19.4 | 22.6 | 21.3 | 23 | 24
